Assay results reported in the supplement of paper PMC7108870.

Tests used:
HEK293sieSTAT3(wt) [1] = assay: drug sensitivity score (DSS), viability CellTiter-Glo (DSS (dimensionless)); higher = more growth inhibition; extreme values may be limits of the assay; conditions: 72 h; STAT3 variant: wild type
Outline: (§1)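 A drug sensitivity score, based on the area of the dose-response curve, was calculated in Breeze after normalising values to negative and positive control wells. It came from HEK293 cells carrying a STAT3-dependent luciferase reporter and overexpressing wild-type or mutant STAT3, plated at 20 μl of 100,000 cells/ml onto compounds acoustically pre-plated at 5 concentrations in 10-fold dilutions in 384-well plates. Following 72 hours at 37°C and 5% CO2, CellTox Green fluorescence (485/520 nm) and then CellTiter-Glo luminescence were read on a PHERAstar FS.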

HEK293sieSTAT3(Y640F) [2] = assay: as above; conditions: 72 h; STAT3 variant: Y640F (constitutively active)
Outline: as §1

HEK293sieSTAT3(wt) [3] = assay: drug sensitivity score (DSS), cytotoxicity CellTox Green (DSS (dimensionless)); higher = more cytotoxic; extreme values may be limits of the assay; conditions: 72 h; STAT3 variant: wild type
Outline: as §1

HEK293sieSTAT3(Y640F) [4] = assay: as above; conditions: 72 h; STAT3 variant: Y640F (constitutively active)
Outline: as §1

Row | SMILES | drug sensitivity score (HEK293sieSTAT3(wt) [1]) | drug sensitivity score (HEK293sieSTAT3(Y640F) [2]) | drug sensitivity score (HEK293sieSTAT3(wt) [3]) | drug sensitivity score (HEK293sieSTAT3(Y640F) [4])
1 | C[C@H](Nc1ncnc2nc[nH]c12)c1cc2cccc(Cl)c2c(=O)n1-c1ccccc1 [Duvelisib] (top concentration tested 500 nM) | 2.36 | 3.95 | 0 | 0
2 | COc1cc(CCc2cc(NC(=O)c3ccc(N4CC(C)NC(C)C4)cc3)n[nH]2)cc(OC)c1 (stereo unspecified) [AZD4547] (top concentration tested 1000 nM) | 0.43 | 1.23 | 0.01 | 0
3 | CN1CCC(COc2cnc(-c3cccc(Cn4nc(-c5cccc(C#N)c5)ccc4=O)c3)nc2)CC1 (top concentration tested 1000 nM) | 0 | 0 | 0 | 0
4 | COc1cccc(OCCCN)c1-c1cc(Nc2cnc(C#N)cn2)n[nH]1 [Prexasertib] (top concentration tested 10000 nM) | 37 | 42.1 | 12.4 | 15.4
5 | CC(C)Oc1cc(Nc2nc(N[C@@H](C)c3ccc(F)cn3)ncc2Cl)n[nH]1 [AZ-23] (top concentration tested 1000 nM) | 6.5 | 3.11 | 1.27 | 0
6 | O=C(Nc1c[nH]nc1-c1nc2ccc(CN3CCOCC3)cc2[nH]1)NC1CC1 [AT9283] (top concentration tested 1000 nM) | 1.49 | 0.91 | 0.75 | 0
7 | Cc1ccc(NC(=O)c2ccc(CN3CCN(C)CC3)cc2)cc1Nc1nccc(-c2cccnc2)n1 [Imatinib] (top concentration tested 10000 nM) | 7.13 | 4.88 | 5.22 | 0.42
8 | Nc1nc2[nH]cnc2c(=S)[nH]1 [Thioguanine] (top concentration tested 10000 nM) | 9.24 | 9.91 | 1.43 | 0
9 | O=c1[nH]c(=O)n([C@H]2C[C@H](O)[C@@H](CO)O2)cc1F [Floxuridine] (top concentration tested 10000 nM) | 29 | 27.2 | 1.28 | 0.42
10 | COc1ccc(CCc2nc3cc(-c4c(C)noc4C)ccc3n2C[C@H](C)N2CCOCC2)cc1Cl [SGC-CBP30] (top concentration tested 25000 nM) | 4.3 | 3.16 | 4.24 | 0.32
11 | Cn1c(Nc2ccc(C(F)(F)F)cc2)nc2cc(Oc3ccnc(-c4ncc(C(F)(F)F)[nH]4)c3)ccc21 [RAF265] (top concentration tested 1000 nM) | 0.25 | 0 | 0.14 | 0
12 | CN(CC(=O)N(Cc1ccc(C2CCCCC2)cc1)c1ccc(C(=O)O)cc1)S(=O)(=O)c1c(F)c(F)c(F)c(F)c1F [SH-4-54] (top concentration tested 25000 nM) | 10.8 | 10.1 | 9.04 | 5.59
13 | O=C(c1ccc(C(=O)N2CCC(N3CCCC3)CC2)c(Nc2ccccc2)c1)N1CCC(N2CCCC2)CC1 [UNC1215] (top concentration tested 30000 nM) | 0.89 | 0.33 | 0 | 0
14 | CC(C)CC(=O)Nc1n[nH]c2c1CN(C(=O)C1CCN(C)CC1)C2(C)C (top concentration tested 10000 nM) | 13.4 | 12.4 | 19 | 4.64
15 | O=C(/C=C/c1cccnc1)NCCCCC1CCN(C(=O)c2ccccc2)CC1 [Daporinad] (top concentration tested 1000 nM) | 32.8 | 32.8 | 0 | 3.19
16 | CC(C)(C)C[C@@H]1N[C@@H](C(=O)N[C@H]2CC[C@H](O)CC2)[C@H](c2cccc(Cl)c2F)[C@]12C(=O)Nc1cc(Cl)ccc12 (top concentration tested 10000 nM) | 4.33 | 3.68 | 2.72 | 2.22
17 | CC(C)(C)Cn1c(N)nc2ccc(-c3[nH]c(C(C)(C)C)nc3-c3ccc(F)cc3)nc21 [Ralimetinib] (top concentration tested 10000 nM) | 0 | 0.9 | 0 | 0.02
18 | C=CC[C@@H]1/C=C(\C)C[C@H](C)C[C@H](OC)[C@H]2O[C@@](O)(C(=O)C(=O)N3CCCC[C@H]3C(=O)O[C@H](/C(C)=C/[C@@H]3CC[C@@H](O)[C@H](OC)C3)[C@H](C)[C@@H](O)CC1=O)[C@H](C)C[C@@H]2OC [Tacrolimus] (top concentration tested 10000 nM) | 0.73 | 0.22 | 0 | 0
19 | Cn1cc(C2=Nc3cc(NC(=O)C(N)C4CCCCC4)cc4c3C2=CNNC4=O)cn1 (stereo unspecified) (top concentration tested 10000 nM) | 15.8 | 17.5 | 5.91 | 2.57
